According to US20230266302A1, “SYNTHESIS AND USE OF N-BENZYL SULFONAMIDES” (THE UNIVERSITY OF TULSA, priority 2020, published 2023):

Columns and labels:
Assay in all cases: ATP level assay (CellTiter-Glo), percent of control
Format in all cases: cell-based
[1] = test system: BxPC3 (pancreatic cancer); settings: two hour incubation; for activity at 100 µM: Homo sapiens, BXPC-3, 2 h, compound alone, control DMSO, read-out: POC (percent of control) BxPC3
Source text: (§1) In the present method, the method of using the available assays has been modified to measure the short-term effect of compounds of interest on ATP levels in the cells. […] In the modified method, the control and test cells are initially treated with the metabolic inhibitor for a period of about thirty minutes to about four hours. Typically, the treatment of the cells with the metabolic inhibitor is for one hour prior to adding the compound to be screened for anti-cancer properties. However, simultaneous treatment with the metabolic inhibitor and the compound being screened should provide satisfactory results. […] ATP synthesis in cells occurs over multiple biochemical pathways. These pathways are very responsive to metabolic inhibitors and/or changes in available nutrients. By incorporating a metabolic inhibitor which is known to impact certain pathways, the disclosed method provides for measurement of a compound's direct effects on the remaining metabolic pathways available for ATP synthesis in the cell.
(§2) Following treatment of the control and test cells with the metabolic inhibitor, the method calls for addition of the compound to be screened for anti-cancer properties to the cells. Following addition of the compound of interest, the assay is allowed to continue for about one hour to about four hours or depending on the luminescing agent up to eighteen hours. However, approximately 60 minutes will be sufficient to determine the ATP inhibiting effect of the compound to be screened on the cells. Following completion of the selected time period, the ATP level within the cell is determined. ATP levels can be determined by luminescence according to standard measuring procedures, i.e. the luminescence level of the assay from the living cells treated with the two component composition is compared to the luminescence level of the assay from the living cells without the two component composition, i.e., the control experiment. Thus, the ATP levels are determined without killing the cells during the incubation of the cells in the presence of the compound of interest. As a result, the measured reduction in ATP level corresponds directly to the inhibition of the metabolic pathways uninhibited by the metabolic blocker.
(§3) A wide variety of ATP luminescing detection reagents are available commercially. So long as the reagent produces a luminescence in the presence of ATP, the reagent will be suitable for use in the present method. Suitable reagents include but are not limited to any ATP dependent luciferase such as but not limited to firefly luciferase, other modified luciferase based reagents, i.e. luciferase derivatives. According to the rapid method for determining the anti-cancer activity of a compound, a sample of living cells is distributed across a number of testing wells. Typically, 96-well plates are used; however, the number of wells is not critical to the current method. When using a 96-well plate the number of living cells will commonly be about 20,000. The sample wells contain a cell growth medium to promote cell health and growth and an additive to prevent bacterial contamination of the wells. One common example of the cell growth medium is DMEM with 10% FBS as described above. One example of the additive to prevent bacterial contamination is a solution of penicillin G and streptomycin referred to commonly as Pen-Strep. The Pen-Strep solution typically contains 5000 units of penicillin G and 5000 micrograms of streptomycin. Thus, the rapid determination of anti-cancer compounds can be carried out using the following method. • The desired number of cells are distributed in a 96-well plate containing 100 μL DMEM plus 10% FBS with optional Pen-Strep. • After 24 hours, cells are treated with the compound of interest or a 5% solution of dimethyl sulfoxide (DMSO) in water as a control. • The time period for exposure to the compound of interest and the DMSO control will vary depending on the luminescing detection reagent. […]

H293 (kidney cancer) = settings: two hour incubation; for activity at 100 µM: 2 h, compound alone, control DMSO, read-out: POC (percent of control) H293
Source text: as §1, §2, §3

HDF (normal cells) = settings: two hour incubation; for activity at 100 µM: 2 h, compound alone, control DMSO, read-out: POC (percent of control) HDF
Source text: as §1, §2, §3

HeLa (cervical cancer) = settings: two hour incubation; for activity at 100 µM: Homo sapiens, HeLa, 2 h, compound alone, control DMSO, read-out: POC (percent of control) HeLa
Source text: as §1, §2, §3

[2] = test system: MCF10A (non-cancerous breast); settings: two hour incubation; for activity at 100 µM: Homo sapiens, MCF-10A, 2 h, compound alone, control DMSO, read-out: POC (percent of control) MCF10A
Source text: as §1, §2, §3

MCF7 (breast cancer) = settings: two hour incubation; for activity at 100 µM: Homo sapiens, MCF7, 2 h, compound alone, control DMSO, read-out: POC (percent of control) MCF7
Source text: as §1, §2, §3

MDA-MB (breast cancer) = settings: two hour incubation; for activity at 100 µM: 2 h, compound alone, control DMSO, read-out: POC (percent of control) MDA-MB
Source text: as §1, §2, §3

NCI-H196 (lung cancer) = settings: two hour incubation; for activity at 100 µM: NCI-H196, 2 h, compound alone, control DMSO, read-out: POC (percent of control) NCI-H196
Source text: as §1, §2, §3

PC3 (prostate cancer) = settings: two hour incubation; for activity at 100 µM: 2 h, compound alone, control DMSO, read-out: POC (percent of control) PC3
Source text: as §1, §2, §3

SkBr3 (breast cancer) = settings: two hour incubation; for activity at 100 µM: Homo sapiens, SK-BR-3, 2 h, compound alone, control DMSO, read-out: POC (percent of control) SkBr3
Source text: as §1, §2, §3

T47D (breast cancer) = settings: two hour incubation; for activity at 100 µM: Homo sapiens, T47D, 2 h, compound alone, control DMSO, read-out: POC (percent of control) T47D
Source text: as §1, §2, §3

[3] = compound 100 uM + rotenone (approximately 1.25 μM)
[4] = compound 100 uM + 2DG (about 10-20 mM)

Row | Structure (SMILES) | activity at 100 µM [1] | POC (percent of control) BxPC3 [1, 3] | activity at 100 µM (H293 (kidney cancer)) | POC (percent of control) H293 (H293 (kidney cancer); [4]) | POC (percent of control) H293 (H293 (kidney cancer); [3]) | activity at 100 µM (HDF (normal cells)) | POC (percent of control) HDF (HDF (normal cells); [4]) | POC (percent of control) HDF (HDF (normal cells); [3]) | activity at 100 µM (HeLa (cervical cancer)) | POC (percent of control) HeLa (HeLa (cervical cancer); [4]) | POC (percent of control) HeLa (HeLa (cervical cancer); [3]) | activity at 100 µM [2] | POC (percent of control) MCF10A [2, 4] | POC (percent of control) MCF10A [2, 3] | activity at 100 µM (MCF7 (breast cancer)) | POC (percent of control) MCF7 (MCF7 (breast cancer); [4]) | POC (percent of control) MCF7 (MCF7 (breast cancer); [3]) | activity at 100 µM (MDA-MB (breast cancer)) | POC (percent of control) MDA-MB (MDA-MB (breast cancer); [4]) | POC (percent of control) MDA-MB (MDA-MB (breast cancer); [3]) | other results
1 | Cc1ccc(S(=O)(=O)NCc2ccc3ncccc3c2)cc1 [Compound 22, 4-methyl-N-(quinolin-6-ylmethyl)benzenesulfonamide] | 99.1% | 70.8% of control | 122% | 69.9% of control | 90.9% of control | 89.7% | 76.3% of control | 85.5% of control | 101% | 94.5% of control | 105.2% of control | 105% | 70.2% of control | 96.9% of control | 113% | 107.1% of control | 96.4% of control | 96.7% | 86.5% of control | 87.1% of control | activity at 100 µM (NCI-H196 (lung cancer)): 117%; POC (percent of control) NCI-H196 (NCI-H196 (lung cancer); [4]): 94.6% of control; POC (percent of control) NCI-H196 (NCI-H196 (lung cancer); [3]): 94.2% of control; activity at 100 µM (PC3 (prostate cancer)): 93%; POC (percent of control) PC3 (PC3 (prostate cancer); [4]): 94.5% of control; POC (percent of control) PC3 (PC3 (prostate cancer); [3]): 108.2% of control; activity at 100 µM (SkBr3 (breast cancer)): 106%; POC (percent of control) SkBr3 (SkBr3 (breast cancer); [4]): 83.5% of control; POC (percent of control) SkBr3 (SkBr3 (breast cancer); [3]): 93.5% of control; activity at 100 µM (T47D (breast cancer)): 85.3%; POC (percent of control) T47D (T47D (breast cancer); [4]): 62.5% of control; POC (percent of control) T47D (T47D (breast cancer); [3]): 109.3% of control
2 | Cc1ccc(S(=O)(=O)NCc2nccs2)cc1 [Compound 19, 4-methyl-N-(1,3-thiazol-2-ylmethyl)benzenesulfonamide] | 96.2% | 107.2% of control | 82.2% | 87.2% of control | 79.1% of control | 92.5% | 98.9% of control | 87.3% of control | 104% | 94.8% of control | 109.3% of control | 83.9% | 95.8% of control | 119.8% of control | 134% | 104% of control | 92.1% of control | 104% | 89.5% of control | 112% of control | POC (percent of control) BxPC3 [1, 4]: 98.4% of control; activity at 100 µM (NCI-H196 (lung cancer)): 117%; POC (percent of control) NCI-H196 (NCI-H196 (lung cancer); [4]): 107.3% of control; POC (percent of control) NCI-H196 (NCI-H196 (lung cancer); [3]): 94.3% of control; activity at 100 µM (PC3 (prostate cancer)): 108%; POC (percent of control) PC3 (PC3 (prostate cancer); [4]): 127.1% of control; POC (percent of control) PC3 (PC3 (prostate cancer); [3]): 98.9% of control; activity at 100 µM (SkBr3 (breast cancer)): 119%; POC (percent of control) SkBr3 (SkBr3 (breast cancer); [4]): 105.9% of control; POC (percent of control) SkBr3 (SkBr3 (breast cancer); [3]): 108.6% of control; activity at 100 µM (T47D (breast cancer)): 91.5%; POC (percent of control) T47D (T47D (breast cancer); [4]): 87.4% of control; POC (percent of control) T47D (T47D (breast cancer); [3]): 86.7% of control
